Assay results as given in ChEMBL document CHEMBL4251606, “Design and characterization of α-lipoic acyl shikonin ester twin drugs as tubulin and PDK1 dual inhibitors” (Eur J Med Chem, 2018).
Activity calls are given as the source filed them. The calls are words filed in the database; no cut-off is given here.

How the values were obtained:
HeLa [1] = assay: Antitumor activity against human HeLa cells xenografted in nude mouse assessed as increase in mouse survival at 2 mg/kg, ip administered once in every 2 days for 15 days relative to control; type: functional, organism-based
HeLa [2] = assay: Induction of apoptosis in human HeLa cells assessed as late apoptotic cells at 6 uM after 24 hrs by Annexin V-APC/propidium iodide staining-based FACScan flow cytometric analysis (reference value: 3.84%); type: functional
HeLa [3] = assay: Induction of apoptosis in human HeLa cells assessed as late apoptotic cells by measuring FL3-H+ cells at 4 uM after 12 hrs by propidium iodide staining-based flow cytometric analysis (reference value: 3.66%); type: functional
HeLa [4] = assay: Reduction in glucose consumption in human HeLa cells at 2 to 8 uM; type: functional, cell-based
HeLa [5] = assay: Antitumor activity against human HeLa cells xenografted in nude mouse assessed as reduction in tumor size at 2 mg/kg, ip administered once in every 2 days for 15 days relative to control; type: functional
HeLa [6] = assay: Induction of apoptosis in human HeLa cells assessed as viable cells at 6 uM after 24 hrs by Annexin V-APC/propidium iodide staining-based FACScan flow cytometric analysis (reference value: 93%); type: functional; conditions: read-out: Activity
MDA-MB-231 = assay: Antiproliferative activity against human MDA231 cells after 24 hrs by MTT assay; type: functional, cell-based; conditions: MDA-MB-231, 24 h
HeLa [7] = assay: Induction of apoptosis in human HeLa cells assessed as viable cells at 6 uM after 36 hrs by Annexin V-APC/propidium iodide staining-based FACScan flow cytometric analysis (reference value: 93%); type: functional; conditions: read-out: Activity
[8] = target: [Pyruvate dehydrogenase (acetyl-transferring)] kinase isozyme 1, mitochondrial (Homo sapiens) (UniProt Q15118); assay: Inhibition of PDK1 in human HeLa cells assessed as decrease in PDH-E1 alpha p-ser300 expression at 6 uM by Western blot analysis; type: cell-based
HeLa [9] = assay: Inhibition of microtubule polymerization in human HeLa cells at 4 uM after 24 hrs by rhodamine/DAPI staining-based confocal microscopic analysis; type: cell-based
HeLa [10] = assay: Antiproliferative activity against human HeLa cells after 24 hrs by MTT assay; type: functional, cell-based
HeLa [11] = assay: Induction of apoptosis in human HeLa cells assessed as necrotic cells at 1 uM after 24 hrs by Annexin V-APC/propidium iodide staining-based FACScan flow cytometric analysis (reference value: 1.18%); type: functional
HeLa [12] = assay: Induction of apoptosis in human HeLa cells assessed as early apoptotic cells at 2 uM after 24 hrs by Annexin V-APC/propidium iodide staining-based FACScan flow cytometric analysis (reference value: 6.46%); type: functional
HeLa [13] = assay: Induction of apoptosis in human HeLa cells assessed as increase in cleaved PARP expression up to 8 uM after 24 hrs by Western blot analysis; type: functional, cell-based
HeLa [14] = assay: Induction of apoptosis in human HeLa cells assessed as necrotic cells at 4 uM after 24 hrs by Annexin V-APC/propidium iodide staining-based FACScan flow cytometric analysis (reference value: 1.18%); type: functional
HeLa [15] = assay: Induction of apoptosis in human HeLa cells assessed as necrotic cells at 2 uM after 24 hrs by Annexin V-APC/propidium iodide staining-based FACScan flow cytometric analysis (reference value: 1.18%); type: functional
HeLa [16] = assay: Induction of apoptosis in human HeLa cells assessed as early apoptotic cells at 6 uM after 12 hrs by Annexin V-APC/propidium iodide staining-based FACScan flow cytometric analysis (reference value: 2.45%); type: functional
HeLa [17] = assay: Cell cycle arrest in human HeLa cells assessed as accumulation of cells at G2/M phase at 2 uM after 24 hrs by propidium iodide staining-based FACScan flow cytometric analysis (reference value: 16.82%); type: functional
HeLa [18] = assay: Induction of apoptosis in human HeLa cells assessed as late apoptotic cells by measuring FL3-H+ cells at 0.7 uM after 24 hrs by propidium iodide staining-based FACScan flow cytometric analysis (reference value: 2.14%); type: functional
HeLa [19] = assay: Induction of apoptosis in human HeLa cells assessed as necrotic cells at 6 uM after 36 hrs by Annexin V-APC/propidium iodide staining-based FACScan flow cytometric analysis (reference value: 0.725%); type: functional
HeLa [20] = assay: Induction of apoptosis in human HeLa cells assessed as late apoptotic cells at 6 uM after 36 hrs by Annexin V-APC/propidium iodide staining-based FACScan flow cytometric analysis (reference value: 3.84%); type: functional
[21] = target: [Pyruvate dehydrogenase (acetyl-transferring)] kinase isozyme 1, mitochondrial (Homo sapiens) (UniProt Q15118); assay: Inhibition of PDK1 in human HeLa cells assessed as increase in PDH activity at 1 to 1.5 uM by microplate assay; type: cell-based
HeLa [22] = assay: Induction of mitochondrial membrane potential loss in human HeLa cells assessed as cells with high membrane potential at 4 uM after 12 hrs by JC-1 staining-based flow cytometric analysis (reference value: 85.8%); type: functional
HeLa [23] = assay: Induction of apoptosis in human HeLa cells assessed as early apoptotic cells at 4 uM after 24 hrs by Annexin V-APC/propidium iodide staining-based FACScan flow cytometric analysis (reference value: 6.46%); type: functional
HeLa [24] = assay: Induction of apoptosis in human HeLa cells assessed as late apoptotic cells at 1 uM after 24 hrs by Annexin V-APC/propidium iodide staining-based FACScan flow cytometric analysis (reference value: 7.22%); type: functional
HeLa [25] = assay: Induction of mitochondrial membrane potential loss in human HeLa cells assessed as cells with high membrane potential at 2 uM after 12 hrs by JC-1 staining-based flow cytometric analysis (reference value: 85.8%); type: functional
HeLa [26] = assay: Induction of apoptosis in human HeLa cells assessed as late apoptotic cells at 4 uM after 24 hrs by Annexin V-APC/propidium iodide staining-based FACScan flow cytometric analysis (reference value: 7.22%); type: functional
HeLa [27] = assay: Cell cycle arrest in human HeLa cells assessed as accumulation of cells at G1 phase at 2 uM after 24 hrs by propidium iodide staining-based FACScan flow cytometric analysis (reference value: 62.92%); type: functional
HeLa [28] = assay: Induction of apoptosis in human HeLa cells assessed as increase in Bax expression up to 8 uM after 24 hrs by Western blot analysis; type: functional, cell-based
HeLa [29] = assay: Induction of apoptosis in human HeLa cells assessed as viable cells at 4 uM after 24 hrs by Annexin V-APC/propidium iodide staining-based FACScan flow cytometric analysis (reference value: 85.1%); type: functional; conditions: read-out: Activity
A549 = assay: Antiproliferative activity against human A549 cells after 24 hrs by MTT assay; type: functional, cell-based; conditions: A549, 24 h
[30] = target: [Pyruvate dehydrogenase (acetyl-transferring)] kinase isozyme 1, mitochondrial (Homo sapiens) (UniProt Q15118); assay: Inhibition of PDK1 in human HeLa cells assessed as decrease in PDH-E1 alpha p-ser232 expression at 6 uM by Western blot analysis; type: cell-based
HeLa [31] = assay: Induction of apoptosis in human HeLa cells assessed as late apoptotic cells by measuring FL3-H+ cells at 6 uM after 36 hrs by propidium iodide staining-based FACScan flow cytometric analysis (reference value: 2.13%); type: functional
HeLa [32] = assay: Cell cycle arrest in human HeLa cells assessed as accumulation of cells at G1 phase at 8 uM after 24 hrs by propidium iodide staining-based FACScan flow cytometric analysis (reference value: 62.92%); type: functional
HeLa [33] = assay: Induction of apoptosis in human HeLa cells assessed as viable cells at 2 uM after 24 hrs by Annexin V-APC/propidium iodide staining-based FACScan flow cytometric analysis (reference value: 85.1%); type: functional; conditions: read-out: Activity

Question: Which Activity (HeLa [1]) does the source give for CC(C)=CC[C@@H](OC(=O)CCCC[C@@H]1CCSC(c2ccccc2)S1)C1=CC(=O)c2c(O)ccc(O)c2C1=O (stereo not given in full) here?
Answer: Its Activity is “Active”.

Question: What about the Activity (HeLa [2]) of the same compound?
Answer: Its Activity is 34.8%.

Question: What about the Activity (HeLa [3]) of the same compound?
Answer: The Activity was 4.74%.

Question: What about the Activity (HeLa [4]) of the same compound?
Answer: The Activity was “Active”.

Question: And the “fold change (FC)” value (HeLa [5])?
Answer: Its value is 5.

Question: What about the viability at 6 µM (HeLa [6]) of the same compound?
Answer: Its viability at 6 µM is 29.1%.

Question: What about the IC50 (MDA-MB-231) of the same compound?
Answer: Its IC50 is 17.7 µM.

Question: What about the viability at 6 µM (HeLa [7]) of the same compound?
Answer: The viability at 6 µM was 26.4%.

Question: What about the inhibition [8] of the same compound?
Answer: The inhibition was “Active”.

Question: What about the inhibition (HeLa [9]) of the same compound?
Answer: The inhibition was “Active”.

Question: What about the IC50 (HeLa [10]) of the same compound?
Answer: Its IC50 is 3.14 µM.

Question: And the Activity (HeLa [11])?
Answer: The Activity was 4.46%.

Question: What about the Activity (HeLa [12]) of the same compound?
Answer: The Activity was 15.5%.

Question: What about the Activity (HeLa [13]) of the same compound?
Answer: The Activity was “Active”.

Question: What about the Activity (HeLa [14]) of the same compound?
Answer: The Activity was 16.9%.

Question: What about the Activity (HeLa [15]) of the same compound?
Answer: The Activity was 11.9%.

Question: And the Activity (HeLa [16])?
Answer: Its Activity is 19%.

Question: What about the Activity (HeLa [17]) of the same compound?
Answer: The Activity was 32.67%.

Question: And the Activity (HeLa [18])?
Answer: The Activity was 6.4%.

Question: What about the Activity (HeLa [19]) of the same compound?
Answer: Its Activity is 5.03%.

Question: And the Activity (HeLa [20])?
Answer: The Activity was 22.9%.

Question: What about the inhibition [21] of the same compound?
Answer: Its inhibition is “Active”.

Question: And the Activity (HeLa [22])?
Answer: The Activity was 10.3%.

Question: And the Activity (HeLa [23])?
Answer: Its Activity is 6.67%.

Question: What about the Activity (HeLa [24]) of the same compound?
Answer: The Activity was 42.7%.

Question: What about the Activity (HeLa [25]) of the same compound?
Answer: Its Activity is 42.1%.

Question: And the Activity (HeLa [26])?
Answer: Its Activity is 58.4%.

Question: What about the Activity (HeLa [27]) of the same compound?
Answer: The Activity was 50.96%.

Question: What about the Activity (HeLa [28]) of the same compound?
Answer: Its Activity is “Active”.

Question: What about the viability at 4 µM (HeLa [29]) of the same compound?
Answer: The viability at 4 µM was 18.1%.

Question: And the IC50 (A549)?
Answer: Its IC50 is 16.4 µM.

Question: What about the inhibition [30] of the same compound?
Answer: Its inhibition is “Active”.

Question: And the Activity (HeLa [31])?
Answer: Its Activity is 55.2%.

Question: What about the Activity (HeLa [32]) of the same compound?
Answer: Its Activity is 15.42%.

Question: And the viability at 2 µM (HeLa [33])?
Answer: Its viability at 2 µM is 23.6%.
